Measured values reported in ChEMBL document CHEMBL1136933 (J Med Chem, 2009).

What was measured:
Assay type in all cases: functional, cell-based
[1] = target: T1, Muscarinic acetylcholine receptor M1 (Rattus norvegicus) (UniProt P08482); assay: Activation of rat muscarinic M1 receptor expressed in CHO cells co-expressing Gq protein assessed as potentiation of acetylcholine-induced intracellular Ca2+ mobilization at 30 uM relative to acetylcholine
T1 sequence (whole entry): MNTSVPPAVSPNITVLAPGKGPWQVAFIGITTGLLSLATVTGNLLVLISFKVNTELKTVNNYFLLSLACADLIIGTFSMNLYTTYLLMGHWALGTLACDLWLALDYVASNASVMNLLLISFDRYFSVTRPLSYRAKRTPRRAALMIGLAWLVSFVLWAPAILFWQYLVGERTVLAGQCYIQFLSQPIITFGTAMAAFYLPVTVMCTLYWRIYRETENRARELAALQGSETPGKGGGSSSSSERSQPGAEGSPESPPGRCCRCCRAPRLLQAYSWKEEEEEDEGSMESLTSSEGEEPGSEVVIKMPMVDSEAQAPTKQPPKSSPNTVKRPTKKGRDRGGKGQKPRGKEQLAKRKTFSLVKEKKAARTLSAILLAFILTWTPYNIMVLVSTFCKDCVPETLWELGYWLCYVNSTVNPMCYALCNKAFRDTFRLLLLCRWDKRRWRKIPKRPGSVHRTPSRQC

[2] = target: T2, Muscarinic acetylcholine receptor M5 (Homo sapiens) (UniProt P08912); assay: Activation of human muscarinic M5 receptor expressed in CHO cells coexpressing Gq protein assessed as potentiation of acetylcholine-induced intracellular Ca2+ mobilization at 30 uM relative to acetylcholine
T2 sequence (whole entry): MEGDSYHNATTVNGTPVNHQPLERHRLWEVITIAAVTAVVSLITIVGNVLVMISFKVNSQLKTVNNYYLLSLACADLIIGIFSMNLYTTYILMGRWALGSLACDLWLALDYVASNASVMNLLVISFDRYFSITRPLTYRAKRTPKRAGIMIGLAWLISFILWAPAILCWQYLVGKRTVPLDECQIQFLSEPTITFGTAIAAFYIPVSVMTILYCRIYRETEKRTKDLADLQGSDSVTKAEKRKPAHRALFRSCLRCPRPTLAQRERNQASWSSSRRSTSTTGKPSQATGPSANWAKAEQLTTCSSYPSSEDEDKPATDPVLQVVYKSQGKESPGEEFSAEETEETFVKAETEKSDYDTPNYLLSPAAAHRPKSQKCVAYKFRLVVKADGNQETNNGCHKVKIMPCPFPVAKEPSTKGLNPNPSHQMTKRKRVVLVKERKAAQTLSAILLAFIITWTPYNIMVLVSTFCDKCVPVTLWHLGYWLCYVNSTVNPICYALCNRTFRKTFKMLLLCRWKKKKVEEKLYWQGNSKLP

[3] = target: T3, Muscarinic acetylcholine receptor M1 (Rattus norvegicus, UniProt P08482); assay: Activation of rat muscarinic M1 receptor expressed in CHO cells co-expressing Gq protein assessed as potentiation of acetylcholine-induced intracellular Ca2+ mobilization
T3 sequence (P08482 whole entry): T1 sequence (whole entry)

[4] = target: T4, Muscarinic acetylcholine receptor M5 (Homo sapiens, UniProt P08912); assay: Activation of human muscarinic M5 receptor expressed in CHO cells coexpressing Gq protein assessed as potentiation of acetylcholine-induced intracellular Ca2+ mobilization
T4 sequence (P08912 whole entry): T2 sequence (whole entry)

Row | %max [1] | %max [2] | EC50 [3] | EC50 [4] | SMILES
1 | 40.1% | 46.2% | – | – | O=C1C(=O)N(Cc2ccccc2F)c2ccc(F)cc21
2 | 38.9% | 24.5% | – | – | O=C1C(=O)N(Cc2ccccc2F)c2ccccc21
3 | 16.8% | 24.3% | – | – | Cc1ccc2c(c1)C(=O)C(=O)N2Cc1ccccc1Cl
4 | 54.7% | 60.5% | – | – | O=C1C(=O)N(Cc2ccc(OC(F)(F)F)cc2)c2ccccc21
5 | 23% | 36.3% | – | – | O=C1C(=O)N(Cc2ccccc2F)c2ccc(Cl)cc21
6 | 24.9% | 24.6% | – | – | Cc1cccc2c1N(Cc1ccccc1F)C(=O)C2=O
7 | 19% | 24.1% | – | – | Cc1ccc2c(c1)C(=O)C(=O)N2Cc1ccc(Br)cc1
8 | 13.8% | 18.9% | – | – | Cc1ccc2c(c1)C(=O)C(=O)N2Cc1ccc(OC(F)(F)F)cc1
9 | 12.1% | 20.7% | – | – | O=C1C(=O)N(Cc2ccc(Br)cc2)c2c(Cl)ccc(Cl)c21
10 | 13.2% | 47.6% | – | – | O=C1C(=O)N(Cc2ccc(Br)cc2)c2ccc(OC(F)(F)F)cc21
11 | 27.6% | 47.3% | – | – | Cc1ccccc1CN1C(=O)C(=O)c2cc(Cl)ccc21
12 | 26.1% | 32% | – | – | O=C1C(=O)N(Cc2ccc(Br)cc2)c2ccc(Cl)cc21
13 | 41.3% | 30.9% | > 30 µM | > 30 µM | O=C1C(=O)N(Cc2ccccc2C(F)(F)F)c2c(F)cccc21
14 | 43.2% | 36.3% | – | – | Cc1ccccc1CN1C(=O)C(=O)c2ccccc21
15 | 29.9% | 30.4% | – | – | O=C1C(=O)N(Cc2ccc(Br)cc2F)c2ccc(Cl)cc21
16 | 17.8% | 30.6% | – | – | Cc1ccc2c(c1)C(=O)C(=O)N2Cc1ccccc1C(F)(F)F
17 | 32.4% | 44.9% | – | – | O=C1C(=O)N(Cc2ccc(F)cc2F)c2ccc(Cl)cc21
18 | 16% | 23.2% | – | – | O=C1C(=O)N(Cc2ccc(OC(F)(F)F)cc2)c2c(Cl)ccc(Cl)c21
19 | 59.8% | 58.4% | – | – | O=C1C(=O)N(Cc2ccc(OC(F)(F)F)cc2)c2ccc(F)cc21
20 | 14.5% | 29.6% | – | – | COc1cccc(CN2C(=O)C(=O)c3cc(C)ccc32)c1
21 | 17.3% | 14.4% | – | – | Cc1cccc2c1N(Cc1c(F)cccc1F)C(=O)C2=O
22 | 51.8% | 57.7% | – | – | O=C1C(=O)N(Cc2ccc(OC(F)(F)F)cc2)c2c(F)cccc21
23 | 37.9% | 40.2% | – | – | O=C1C(=O)N(Cc2ccccc2C(F)(F)F)c2ccccc21
24 | 43.4% | 42% | – | – | O=C1C(=O)N(Cc2ccccc2Cl)c2ccccc21
25 | 31.1% | 14% | – | – | O=C1C(=O)N(Cc2ccccc2C(F)(F)F)c2c(Cl)cccc21
26 | 64.6% | 61.6% | – | – | O=C1C(=O)N(Cc2ccc(F)cc2F)c2c(Cl)cccc21

Row | %max [1] | %max [2] | EC50 [3] | EC50 [4] | SMILES
27 | 29.9% | 44.3% | – | – | O=C1C(=O)N(Cc2ccc(Br)cc2)c2c(Cl)cccc21
28 | 14.1% | 21.2% | – | – | COc1ccc(CN2C(=O)C(=O)c3cc(C)ccc32)cc1
29 | 9.93% | 12.4% | – | – | O=C1C(=O)N(Cc2ccc(Br)cc2F)c2c(Cl)ccc(Cl)c21
30 | 12.4% | 14.7% | – | – | O=C1C(=O)N(Cc2ccccc2F)c2c(Cl)ccc(Cl)c21
31 | 25.9% | 61.9% | – | – | O=C1C(=O)N(Cc2ccc(F)cc2F)c2ccc(OC(F)(F)F)cc21
32 | 13.7% | 16.4% | – | – | Cc1ccccc1CN1C(=O)C(=O)c2c(Cl)ccc(Cl)c21
33 | 22.9% | 35.5% | – | – | Cc1ccc2c(c1)C(=O)C(=O)N2Cc1ccc(C(F)(F)F)cc1
34 | 39.2% | 46.3% | – | – | O=C1C(=O)N(Cc2ccc(Br)cc2F)c2c(F)cccc21
35 | 27.3% | 31.8% | – | – | O=C1C(=O)N(Cc2c(F)cccc2F)c2ccc(Cl)cc21
36 | 22.6% | 56.5% | – | – | O=C1C(=O)N(Cc2ccccc2C(F)(F)F)c2ccc(OC(F)(F)F)cc21
37 | 49.2% | 48.5% | – | – | O=C1C(=O)N(Cc2ccc(Br)cc2F)c2ccccc21
38 | 22.3% | 27.8% | – | – | Cc1ccc2c(c1)C(=O)C(=O)N2Cc1ccc(Br)cc1F
39 | 27.6% | 31.1% | – | – | O=C1C(=O)N(Cc2c(F)cccc2F)c2ccc(F)cc21
40 | 47.3% | 60.3% | – | – | O=C1C(=O)N(Cc2ccc(F)cc2F)c2ccc(F)cc21
41 | 64.4% | 68.9% | – | – | O=C1C(=O)N(Cc2ccc(F)cc2F)c2c(F)cccc21
42 | 37.7% | 40.8% | – | – | Cc1ccccc1CN1C(=O)C(=O)c2cc(F)ccc21
43 | 13.1% | 18.9% | – | – | O=C1C(=O)N(Cc2ccccc2Cl)c2c(Cl)ccc(Cl)c21
44 | 31.3% | 47.1% | – | – | O=C1C(=O)N(Cc2ccc(OC(F)(F)F)cc2)c2ccc(Cl)cc21
45 | 43.6% | 72.3% | – | – | O=C1C(=O)N(Cc2ccc(OC(F)(F)F)cc2)c2c(Cl)cccc21
46 | 44.1% | 67.4% | – | – | O=C1C(=O)N(Cc2ccc(C(F)(F)F)cc2)c2ccc(Cl)cc21
47 | 16.4% | 12.2% | – | – | O=C1C(=O)N(Cc2c(F)cccc2F)c2c(Cl)ccc(Cl)c21
48 | 51.1% | 52% | – | – | COc1cccc(CN2C(=O)C(=O)c3cccc(F)c32)c1
49 | 18.6% | 11.7% | – | – | COc1ccc(CN2C(=O)C(=O)c3c(Cl)ccc(Cl)c32)cc1
50 | 32.6% | 33.8% | – | – | Cc1cccc2c1N(Cc1ccc(F)cc1F)C(=O)C2=O
51 | 46.9% | 38.7% | – | – | COc1cccc(CN2C(=O)C(=O)c3cccc(Cl)c32)c1
52 | 33.1% | 25.1% | – | – | O=C1C(=O)N(Cc2c(F)cccc2F)c2c(F)cccc21

Row | %max [1] | %max [2] | EC50 [3] | EC50 [4] | SMILES
53 | – | – | – | 4.66 µM | O=C1C(=O)N(Cc2ccc(Br)cc2F)c2c(Cl)cccc21
54 | 13.6% | 29.8% | – | – | O=C1C(=O)N(Cc2c(F)cccc2F)c2ccc(OC(F)(F)F)cc21
55 | 70.5% | 64% | – | – | O=C1C(=O)N(Cc2ccc(Br)cc2F)c2ccc(F)cc21
56 | 44.8% | 40.4% | – | – | O=C1C(=O)N(Cc2ccc(F)cc2F)c2ccccc21
57 | 32.3% | 41.6% | – | – | COc1cccc(CN2C(=O)C(=O)c3cc(F)ccc32)c1
58 | 41.1% | 38.3% | – | – | COc1ccc(CN2C(=O)C(=O)c3cc(F)ccc32)cc1
59 | 16.9% | 27.9% | – | – | COc1cccc(CN2C(=O)C(=O)c3cc(Cl)ccc32)c1
60 | 36.6% | 17.4% | – | – | O=C1C(=O)N(Cc2c(F)cccc2F)c2ccccc21
61 | 54.6% | 44.4% | – | – | COc1ccc(CN2C(=O)C(=O)c3cccc(F)c32)cc1
62 | 21.3% | 44.4% | – | – | O=C1C(=O)N(Cc2ccccc2Cl)c2ccc(Cl)cc21
63 | 20.2% | 29.9% | – | – | Cc1ccc2c(c1)C(=O)C(=O)N2Cc1ccccc1C
64 | 21.1% | 16% | – | – | O=C1C(=O)N(Cc2ccccc2C(F)(F)F)c2c(Cl)ccc(Cl)c21
65 | – | – | – | 3.19 µM | O=C1C(=O)N(Cc2ccc(C(F)(F)F)cc2)c2ccccc21
66 | 17.2% | 19.1% | – | – | O=C1C(=O)N(Cc2ccc(F)cc2F)c2c(Cl)ccc(Cl)c21
67 | 32.8% | 32.6% | – | – | Cc1ccccc1CN1C(=O)C(=O)c2cccc(Cl)c21
68 | 20.3% | 32.6% | – | – | COc1ccc(CN2C(=O)C(=O)c3cc(Cl)ccc32)cc1
69 | 18.5% | 20.3% | – | – | O=C1C(=O)N(Cc2ccccc2Cl)c2c(F)cccc21
70 | 29.6% | 48.4% | – | – | O=C1C(=O)N(Cc2ccccc2C(F)(F)F)c2ccc(Cl)cc21
71 | 50.4% | 49.5% | – | – | O=C1C(=O)N(Cc2ccccc2F)c2c(Cl)cccc21
72 | 38.8% | 23.6% | – | – | O=C1C(=O)N(Cc2c(F)cccc2F)c2c(Cl)cccc21
73 | 42.7% | 42.4% | – | – | O=C1C(=O)N(Cc2ccccc2F)c2c(F)cccc21
74 | 11.3% | 51.8% | – | – | O=C1C(=O)N(Cc2ccccc2F)c2ccc(OC(F)(F)F)cc21
75 | 30.2% | 27.5% | – | – | Cc1ccccc1CN1C(=O)C(=O)c2cccc(F)c21
76 | 19.4% | 28% | – | – | COc1cccc(CN2C(=O)C(=O)c3ccccc32)c1

Row | SMILES | %max [1] | %max [2] | EC50 [3] | EC50 [4]
77 | O=C1C(=O)N(Cc2ccccc2Cl)c2ccc(F)cc21 | 41.4% | 39.9% | – | –
